Target: BTK (Homo sapiens (Human), UniProt Q06187)
Test: Z'-LYTE kinase inhibition assay against BTK
Type: biochemical
Conditions: for inhibition at 0.1 µM: compound at 100 nM, ATP concentration at Km; for IC50: series of concentrations, GraphPad Prism 5
How it was run: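 Compounds were titrated over 10 points (3-fold steps, 1% DMSO) against BTK (1.04-10.4 ng) using Tyr 01 substrate at 2 μM and ATP at Km, pH 7.5 HEPES buffer with MgCl2 and EGTA. After one hour each of reaction and development at room temperature, fluorescence gave percent inhibition and IC50.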

BTK, sequence (Q06187 whole entry): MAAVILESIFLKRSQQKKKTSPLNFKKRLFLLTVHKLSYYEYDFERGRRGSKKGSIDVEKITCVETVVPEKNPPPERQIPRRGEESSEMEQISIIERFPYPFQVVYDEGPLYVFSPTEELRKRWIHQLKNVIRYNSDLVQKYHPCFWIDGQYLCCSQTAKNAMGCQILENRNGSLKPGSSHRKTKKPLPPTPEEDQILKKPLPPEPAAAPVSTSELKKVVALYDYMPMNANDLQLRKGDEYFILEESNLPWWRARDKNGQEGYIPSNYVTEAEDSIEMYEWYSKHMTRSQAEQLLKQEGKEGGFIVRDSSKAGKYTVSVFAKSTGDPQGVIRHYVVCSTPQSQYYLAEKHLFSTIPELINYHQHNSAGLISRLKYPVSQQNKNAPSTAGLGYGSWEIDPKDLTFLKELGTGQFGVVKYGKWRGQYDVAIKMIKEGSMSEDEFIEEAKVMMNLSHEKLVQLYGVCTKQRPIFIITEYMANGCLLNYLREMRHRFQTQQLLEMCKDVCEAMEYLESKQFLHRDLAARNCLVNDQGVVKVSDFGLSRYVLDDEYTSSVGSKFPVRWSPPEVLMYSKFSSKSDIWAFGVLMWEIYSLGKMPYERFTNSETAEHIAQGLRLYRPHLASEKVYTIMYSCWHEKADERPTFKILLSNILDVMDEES

inhibition at 0.1 µM [%]	IC50 [nM]	Compound
< 50	–	C=CC(=O)N1CCC(c2cc(-c3ccc(C(=O)Nc4ccnnc4)cc3)cc3cncnc23)C1 (centres unmarked) [C147, 4-(8-(1-acryloylpyrrolidin-3-yl)quinazolin-6-yl)-N-(pyridazin-4-yl)benzamide]
< 50	–	C=CC(=O)N1CCC(c2cc(-c3ccc(C(=O)Nc4ncccc4F)cc3)c(N)c3cncnc23)C1 (centres unmarked) [C215, 4-(8-(1-acryloylpyrrolidin-3-yl)-5-amino-quinazolin-6-yl)-N-(3-fluoropyridin-2-yl)benzamide]
< 50	–	C=CC(=O)N1CCC=C(c2cc(-c3ccc(C(=O)Nc4ccccn4)cc3)cc3cncnc23)C1 [C009, 4-(8-(1-acryloyl-1,2,5,6-tetrahydropyridin-3-yl)quinazolin-6-yl)-N-(pyridin-2-yl)benzamide]
< 50	–	C=CC(=O)N1CCC(c2cc(-c3ccc(C(=O)Nc4cc(OC)ccn4)c(F)c3)n3cnccc23)C1 (centres unmarked) [C148, 4-(5-(1-acryloylpyrrolidin-3-yl)pyrrolo[1,2-c]pyrimidin-7-yl)-2-fluoro-N-(4-methoxypyridin-2-yl)benzamide]
> 50	–	C=CC(=O)Nc1cccc(-c2cc(-c3ccc(Oc4cccc(C(F)(F)F)c4)nc3)cc3cncnc23)c1 [C081, N-(3-(6-(6-(3-(trifluoromethyl)phenoxy)pyridin-3-yl)quinazolin-8-yl)phenyl)acrylamide]
> 50	< 100	C=CC(=O)Nc1cccc(-c2cc(-c3ccc(Oc4cc(C#N)ccn4)cc3F)cc3cncnc23)c1 [C189, N-(3-(6-(4-((4-cyanopyridin-2-yl)oxy)-2-fluorophenyl)quinazolin-8-yl)phenyl)acrylamide]
> 50	–	C=CC(=O)Nc1cccc(-c2cc(-c3ccc(C(=O)Nc4ncccc4F)cc3Cl)c(N)c3cncnc23)c1 [C217, 4-(8-(3-acrylamidophenyl)-5-aminoquinazolin-6-yl)-3-chloro-N-(3-fluoropyridin-2-yl)benzamide]
–	< 100	CC#CC(=O)N1CCC(c2nc(-c3ccc(C(=O)Nc4ccccn4)c(F)c3)n3c(N)nccc23)C1 (centres unmarked) [C231, 4-(5-amino-1-(1-(but-2-ynoyl)pyrrolidin-3-yl)imidazo[1,5-c]pyrimidin-3-yl)-2-fluoro-N-(pyridin-2-yl)benzamide]
< 50	–	C=CC(=O)N1CCC(c2cc(-c3cccnc3)cc3cncnc23)C1 (centres unmarked) [C043, 1-(3-(6-(pyridin-3-yl)quinazolin-8-yl)pyrrolidin-1-yl)prop-2-en-1-one]
> 50	< 100	C=CC(=O)Nc1cccc(-c2cc(-c3ccc(C(=O)Nc4ccccn4)c(F)c3)cc3cncnc23)c1 [C132, 4-(8-(3-acrylamidophenyl)quinazolin-6-yl)-2-fluoro-N-(pyridin-2-yl)benzamide]
< 50	–	C=CC(=O)Nc1cccc(-c2cc(-c3ccc(C(=O)Nc4ccccn4)cc3)c(N)c3cncnc23)c1 [C170, 4-(8-(3-acrylamidophenyl)-5-aminoquinazolin-6-yl)-N-(pyridin-2-yl)benzamide]
< 50	–	C=CC(=O)N1CCC(c2cc(-c3ccc(C(=O)Nc4cc(C#N)ccn4)cc3)cc3cncnc23)C1 (centres unmarked) [C124, 4-(8-(1-acryloylpyrrolidin-3-yl)quinazolin-6-yl)-N-(4-cyanopyridin-2-yl)benzamide]
> 50	< 100	C=CC(=O)Nc1cccc(-c2cc(-c3ccc(C(=O)Nc4cc(C5CC5)ccn4)cc3)c(N)c3cncnc23)c1 [C171, 4-(8-(3-acrylamidophenyl)-5-aminoquinazolin-6-yl)-N-(4-cyclopropylpyridin-2-yl)benzamide]
> 50	–	C=CC(=O)N1CCC(c2nc(-c3ccc(Oc4ncccc4F)cc3)n3c(N)nccc23)C1 (centres unmarked) [C226, 1-(3-(5-amino-3-(4-((3-fluoropyridin-2-yl)oxy)phenyl)imidazo[1,5-c]pyrimidin-1-yl)pyrrolidin-1-yl)prop-2-en-1-one]
–	< 100	C=CC(=O)N1CCC(c2nc(-c3ccc(C(=O)Nc4cc(C(F)(F)F)ccn4)cc3)n3c(N)nccc23)C1 (centres unmarked) [C242, 4-(1-(1-acryloylpyrrolidin-3-yl)-5-amino-imidazo[1,5-c]pyrimidin-3-yl)-N-(4-(trifluoromethyl)pyridin-2-yl)benzamide]
< 50	–	C=CC(=O)Nc1cccc(-c2cc(-c3ccc(Oc4ccccn4)cc3)c(N)c3cncnc23)c1 [C179, N-(3-(5-amino-6-(4-(pyridin-2-yloxy)phenyl)quinazolin-8-yl)phenyl)acrylamide]
< 50	–	C=CC(=O)N1CCC(c2cc(-c3ccc(C(=O)Nc4cc(OC)ccn4)cc3F)n3cnccc23)C1 (centres unmarked) [C150, 4-(5-(1-acryloylpyrrolidin-3-yl)pyrrolo[1,2-c]pyrimidin-7-yl)-3-fluoro-N-(4-methoxypyridin-2-yl)benzamide]
> 50	< 100	C=CC(=O)N1CCC(c2cc(-c3ccc(Oc4ccccc4)cc3)cc3cncnc23)C1 (centres unmarked) [C048, 1-(3-(6-(4-phenoxyphenyl)quinazolin-8-yl)pyrrolidin-1-yl)prop-2-en-1-one]
< 50	–	C=CC(=O)N1CCCC(c2cc(-c3ccccc3)cc3c(N)ncnc23)C1 (centres unmarked) [C034, 1-(3-(4-amino-6-phenylquinazolin-8-yl)piperidin-1-yl)prop-2-en-1-one]
< 50	> 100	C=CC(=O)N1CCC(c2cc(-c3ccc(Oc4cc(C(F)(F)F)ccn4)cc3)c(N)c3cncnc23)C1 (centres unmarked) [C193, 1-(3-(5-amino-6-(4-((4-(trifluoromethyl)pyridin-2-yl)oxy)phenyl)quinazolin-8-yl)pyrrolidin-1-yl)prop-2-en-1-one]
> 50	< 100	C=CC(=O)Nc1cccc(-c2cc(-c3cccnc3)cc3cncnc23)c1 [C007, N-(3-(6-(pyridin-3-yl)quinazolin-8-yl)phenyl)acrylamide]
> 50	< 100	C=CC(=O)Nc1cccc(-c2cc(-c3ccc(Oc4cc(C(N)=O)ccn4)cc3)cc3cncnc23)c1 [C191, 2-(4-(8-(3-acrylamidophenyl)quinazolin-6-yl)phenoxy)isonicotinamide]
> 50	< 100	C=CC(=O)Nc1cccc(-c2cc(-c3ccc(C(=O)Nc4cc(C(F)(F)F)ccn4)cc3)cc3cncnc23)c1 [C137, 4-(8-(3-acrylamidophenyl)quinazolin-6-yl)-N-(4-(trifluoromethyl)pyridin-2-yl)benzamide]
< 50	–	C=CC(=O)N1CCC(c2cc(-c3ccc(C(=O)Nc4ccccc4)nc3)cc3cncnc23)C1 (centres unmarked) [C060, 5-(8-(1-acryloylpyrrolidin-3-yl)quinazolin-6-yl)-N-phenylpicolinamide]
< 50	–	C=CC(=O)Nc1cccc(-c2cc(-c3ccc(C(=O)Nc4cccc(C)c4)nc3)cc3cncnc23)c1 [C070, 5-(8-(3-acrylamidophenyl)quinazolin-6-yl)-N-(m-tolyl)picolinamide]
> 50	–	CC#CC(=O)N1CCC(c2nc(-c3ccc(Oc4cc(OC)ccn4)cc3)n3c(N)nccc23)C1 (centres unmarked) [C214, 1-(3-(5-amino-3-(4-((4-methoxypyridin-2-yl)oxy)phenyl)imidazo[1,5-c]pyrimidin-1-yl)pyrrolidin-1-yl)but-2-yn-1-one]
< 50	–	C=CC(=O)N1CCC(c2cc(-c3ccc(C(=O)Nc4cccc(C(F)(F)F)c4)nc3)cc3cncnc23)C1 (centres unmarked) [C093, 5-(8-(1-acryloylpyrrolidin-3-yl)quinazolin-6-yl)-N-(3-(trifluoromethyl)phenyl)picolinamide]

Source: patent publication US10544106B2, “Certain chemical entities, compositions, and methods” (NeuPharma, Inc., priority 2016, dated 2020)
